Laboratory results: US8557737B2, “Methods of altering poppy characteristics” (priority 2005, dated 2013)

What was measured:
Format in all cases: in vivo, Papaver somniferum
poppy crops [1] = assay: Example 9: field trial, mesosulfuron-methyl and metsulfuron-methyl, morphine crop; settings: for LODGING: assessed on the day of capsule harvest; for HEIGHT: measured at green capsule stage
Protocol: (§1) All trials were conducted on poppy crops. Seed was treated with Thiram (5.6 g of Thiram 800/kg seed) and Apron (4 g/kg) and sown at a rate of approximately 750 g/ha. Fertilisers were applied at sowing. Most commonly, either 50:50 lime:superphosphate/triple superphosphate at 125 kg/ha, or lime:superphosphate at 250 kg/ha, were mixed with seed and drilled at a depth of 15 mm. In the same operation, NPK (nitrogen:phosphorus:potassium), at various rates, was banded 75 mm below the seed, unless otherwise stated. All crops were subjected to herbicide sprays for weed control, fungicide sprays for disease control, insecticide sprays if appropriate and were irrigated as required.
(§2) All spray applications were made with a precision sprayer, using Silvan Lurmark flat-fan, low-drift nozzles (LD110-0015). Spray equipment was calibrated to deliver 153 L water/ha.
(§3) At harvest, a 2 m×4 m quadrat was placed in each plot (3 m×6 m, unless otherwise stated) and capsules hand-picked from this area. Capsules were broken up, seed and capsule material separated and weighed. Capsule moisture readings were taken with a moisture meter. Alkaloid yield data were calculated on Pesticide Research Manager (version 5 for Windows) using the formulae below. Briefly, capsule weight was adjusted for moisture to a dry weight, 5% of seed weight was added to this (this amount of capsule material regularly occurs in seed samples after processing) to give a capsule weight per plot. Seed weight was adjusted to 95% of crude weight. Straw weights were determined by multiplying dry capsule weight by 1.3 (estimated amount of stem material in a commercial harvest) and adjusted to 11% moisture. When Lontrel was applied to crops exact capsule and seed weight data were entered. Analyses of variance and a Multiple Range Test were performed on data using Pesticide Research Manager.
Trial to evaluate applications of mesosulfuron-methyl (Compound 2) and metsulfuron-methyl (Compound 1), in a morphine crop. Treatment sprays were applied to crop at ground cover, late run-up and early bud-emergence, respectively. Plant heights were measured at green capsule stage, and lodging assessed on the day of capsule harvest.

poppy crops [2] = assay: Example 16: field trial, metsulfuron-methyl, mesosulfuron-methyl and triasulfuron at row cover and ground cover/early run-up, morphine crop; settings: Trt 5: COMPOUND 2 150 MG/HA + ACTIVATOR .125% V/V at RC and GC/ERU
Protocol: as §1, §2, §3
Trial to evaluate applications of metsulfuron-methyl (Compound 1), mesosulfuron-methyl (Compound 2) and triasulfuron (Compound 3), in a morphine crop. Treatment sprays were applied to crop at row cover and ground cover/early run-up, respectively. Plant heights were assessed 5 weeks after last application and lodging was assessed at capsule harvest.

poppy crops [3] = assay: Example 17: field trial, triasulfuron, mesosulfuron-methyl and metsulfuron-methyl at early run-up and mid-late run-up, morphine crop; settings: Trt 5: COMPOUND 2 150 MG/HA + ACTIVATOR .125% V/V at ERU and M-LRU
Protocol: as §1, §2, §3
Trial to evaluate applications of triasulfuron, mesosulfuron-methyl and metsulfuron-methyl, in a morphine crop. Treatment sprays were applied to with crop at early run-up and mid-late run-up, respectively. Plant heights were measured on 6 weeks after last application and lodging was assessed at capsule harvest.

poppy crops [4] = assay: Example 18: field trial, triasulfuron, mesosulfuron-methyl and metsulfuron-methyl at row cover, mid run-up and early hook, morphine crop; settings: Trt 5: COMPOUND 2 150 MG/HA + ACTIVATOR .125% V/V at RC, MRU and LRU
Protocol: as §1, §2, §3
Trial to evaluate applications of triasulfuron, mesosulfuron-methyl and metsulfuron-methyl, in a morphine crop. […] Plant heights were measured 5 weeks after last application and lodging at capsule harvest.

[5] = COMPOUND 2 390 MG/HA + ACTIVATOR .125 % V/V at GC and EBE
[6] = COMPOUND 2 390 MG/HA + ACTIVATOR .125 % V/V at GC, LRU and EBE

COC(=O)c1ccc(CNS(C)(=O)=O)cc1S(=O)(=O)NC(=O)Nc1nc(OC)cc(OC)n1 [Compound 2, mesosulfuron-methyl]
CAPSULE/SEED RATIO (poppy crops [1]; [5]): 2.084 b | CROP WEIGHT (poppy crops [1]; [5]): 1.80 c t/ha | MORPHINE (poppy crops [1]; [5]): 26.41 b kg/ha | SEED (poppy crops [1]; [5]): 460 b kg/ha | STRAW (poppy crops [1]; [5]): 1342 c kg/ha | STRAW MORPHINE (poppy crops [1]; [5]): 2.10 a % | LODGING (poppy crops [1]; [5]): 6.5 bc % | HEIGHT (poppy crops [1]; [5]): 96.0 ab cm | CAPSULE/SEED RATIO (poppy crops [1]; [6]): 1.854 b | CROP WEIGHT (poppy crops [1]; [6]): 1.16 d t/ha | MORPHINE (poppy crops [1]; [6]): 15.27 c kg/ha | SEED (poppy crops [1]; [6]): 336 b kg/ha | STRAW (poppy crops [1]; [6]): 827 d kg/ha | STRAW MORPHINE (poppy crops [1]; [6]): 2.03 a % | LODGING (poppy crops [1]; [6]): 11.0 ab % | HEIGHT (poppy crops [1]; [6]): 89.3 b cm | CAPS/SEED RATIO (poppy crops [2]): 0.825 c | CROP WEIGHT (poppy crops [2]): 3.65 ab t/ha | MORPHINE (poppy crops [2]): 43.77 ab kg/ha | SEED (poppy crops [2]): 1671 b kg/ha | STRAW (poppy crops [2]): 1976 ab kg/ha | STRAW MORPHINE (poppy crops [2]): 2.21 a % | PLANT HEIGHT (poppy crops [2]; 5 weeks after last application): 101.6 b cm | CAPS/SEED RATIO (poppy crops [3]): 2.315 days | CROP WEIGHT (poppy crops [3]): 2.57 b t/ha | MORPHINE (poppy crops [3]): 41.97 b kg/ha | SEED (poppy crops [3]): 612 b kg/ha | STRAW (poppy crops [3]): 1910 b kg/ha | STRAW MORPHINE (poppy crops [3]): 2.23 b % | PLANT HEIGHT (poppy crops [3]; 6 weeks after last application): 104.0 b cm | LODGING (poppy crops [3]; at capsule harvest): 2.8 b % | CAPS/SEED RATIO (poppy crops [4]): 1.071 b | CROP WEIGHT (poppy crops [4]): 3.25 a t/ha | MORPHINE (poppy crops [4]): 42.83 b kg/ha | SEED (poppy crops [4]): 1281 b kg/ha | STRAW (poppy crops [4]): 1917 b kg/ha | STRAW MORPHINE (poppy crops [4]): 2.23 b % | PLANT HEIGHT (poppy crops [4]; 5 weeks after last application): 96.4 b cm | LODGING (poppy crops [4]; at capsule harvest): 2.8 a %
